Test [1] has as its system epithelial sodium channel (ENaC). In words: Transepithelial Electrical Resistance (TEER) assay, primary CF delF508 or non-CF HBE cells (FIG. 6-9). In kind it is cell-based, human. The procedure:
(§1) Primary cultures of CF delF508 or non-CF HBE cells are seeded onto permeable filter supports and grown for 12-14 days for a significant RTE to be measured for TEER assays.
(§2) When the ENaC is active under basal conditions (at least in part due to protease cleavage inside the cell or at the apical membrane), there is a finite RTE that is affected by the Na+ current flowing through ENaC heterotrimers (αβγ or δβγ).

Test [2] concerns the target T1, Furin (108-574-Tev-Flag-His) enzyme (Homo sapiens, UniProt P09958).
T1 construct: Furin (108-574-Tev-Flag-His) enzyme was expressed and purified from CHO cells; TEV cleavage site (C); FLAG (C); His (C); made in house; host or cells: CHO cells
In words: Furin enzyme assay. In kind it is biochemical. The method in brief: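 CHO-expressed, purified furin construct at 40 pM in 100 mM HEPES pH7.5, 1 mM CaCl2, 0.005% Triton X-100. Eleven-point 1:3 series, 0.00017–10 μM final, incubated 2 h at room temperature and read on Envision. pXC50 from four-parameter fit.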

The test system of test [3] is epithelial sodium channel (ENaC). In words: TEER assay, chronic or acute treatment, Non-CF Polarized Human Lobar Bronchial Epithelial Cells. More on the design: RTE Before Amil / RTE After Amil: unit not given here. The settings on record: for Delta RTE / RTE After Amil / RTE Before Amil: chronic treatment (overnight). The class given is cell-based. As for the experimental part:
as §1, §2

The test system is the same in test [4]. Put plainly: Transepithelial fluid transport assay, CF delF508 HBE cells. The class given is cell-based, human. As for the experimental part:
Primary cultures of CF delF508 or non-CF HBE cells are seeded onto permeable filter supports and grown for 7 days for a significant RTE to be measured. Then, apical media is removed to initiate air-fluid interface (AFI) culture. When the cell monolayers are tight to fluid leak from basolateral to apical side of the cell monolayer, they are ready for fluid transport (fluid absorption) measurements.
Two methods are being used to challenge cell monolayers in AFI culture where there is no media in the apical side:
(1) A chronic overnight treatment was performed by adding the protease inhibitors (ENaC inhibitors) into the basolateral media. Then, […] of cell culture media is added to the apical side of each monolayer and fluid absorption measured (by the loss of volume in mls).
(2) An acute treatment was performed when the protease inhibitors (ENaC inhibitors) are added in the apical media in that […] volume (or media only or DMSO equivalents as controls).
In each case, fluid absorption is occurring against a 5× hydrostatic pressure gradient (i.e., there are 500 ml on the basolateral side and […] on the apical side).
When the ENaC is active under basal conditions (at least in part due to protease cleavage inside the cell or at the apical membrane), the absorptive Na+ current flowing through ENaC heterotrimers (αβγ or δβγ) creates an osmotic driving force for fluid absorption.

The next test relates to TGFβ in mouse lung. In words: Bleomycin induced lung fibrosis model: TGFβ assay. The class given is in vivo. The settings on record: relative to levels induced by Bleomycin in vehicle treated animals, *p < 0.05. As for the experimental part:
(§3) Preclinical pulmonary fibrosis can be induced by single instillation of Bleomycin to the mouse lung. A 15-day Bleomycin protocol was developed to evaluate compounds of the invention in vivo for their ability to inhibit TGFβ secretion and collagen deposition in the mouse lung. On the day before Bleomycin instillation, compounds were administrated to mice based on the appropriate route and frequency. On the study initiation day, under Ketamine (80 mg/kg) and Xylazine (10 mg/kg) anesthesia, all the animals were cannulated oro-tracheally and 50 μL of normal saline (Sham control) or 0.03 U Bleomycin in 50 μL saline (all groups except sham control group) was delivered into the trachea. Compounds were dosed daily until the end of study on Day 15. On termination day, animals were euthanized using CO2 inhalation. The right lung was collected, washed in normal saline, weighed, flash frozen in liquid nitrogen and stored at −80° C. for hydroxyproline (a specific marker for collagen) and TGFβ assays.
(§4) Flash frozen whole right lung tissues were homogenized in 500 μL of RIPA buffer containing PMSF and protease inhibitor cocktail using zirconium oxide bead based homogenizer (Bullet blender Gold, NextAdvance, Germany). Briefly, tissues were spun in the homogenizer at 4° C. for three cycles of 10 minutes each at 1000 g. A complete uniform tissue mixture was obtained using this procedure. The homogenate volume was made up to 1.5 mL by adding 1 mL of RIPA buffer containing PMSF and protease inhibitor cocktail to 500 μL of homogenate. The homogenate was stored as aliquots of 100-500 μL each at −80° C.
Lung tissue homogenates (500 μL) were spun at 13,000 rpm for 20 minutes at 4° C. and supernatants were collected for TGFβ estimation. The assay was performed according to the manufacturer's manual (R&D systems: Cat #SMB100B). Briefly, the lung homogenates were activated by acid activation followed by neutralization to convert latent TGFβ to active TGFβ and the total TGFβ levels in supernatants were measured. Total protein levels in the lung supernatant were also determined.

The test system of test [5] is hydroxyproline (a specific marker for collagen) in mouse lung. In words: Bleomycin induced lung fibrosis model: hydroxyproline assay. In kind it is in vivo. The note with it: relative to levels induced by Bleomycin in vehicle treated animals, *p < 0.05. As for the experimental part: as §3, §4
Acid hydrolysis: 500 μL of the homogenized lung parenchyma was transferred to glass vials, and an equal volume of 12N HCl was added (final concentration of HCl: 6N). The vials were purged with nitrogen gas, sealed and incubated overnight (16 h) under anoxic conditions at 110° C.
Post incubation procedures: 35 μL of the sample from each tube or standard (prepared by serial dilution of hydroxyproline stock solution) was added onto a 96 well plate and the assay was performed as per the kit protocol (Quickzyme Biosciences: Cat #: QZBHYPR05). After the final color development, absorbance was measured by colorimetric analysis at 570 nm (using Thermoscan spectrum (Plate Reader) and results were recorded. Standard curve (linear graph) was generated by using hydroxyproline standards provided in the Quickzyme kit.

The target of test [6] is T2, furin (endogenous protease) in U20S cells (Homo sapiens, UniProt P09958).
T2 construct: the endogenous protease cleaves GFP; endogenous in cells; host or cells: U2OS cells transduced with a BacMam reporter
Put plainly: Furin cell-based assay (image-based, Golgi-targeted GFP with BMP10 furin/PCSK cleavage site).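 Also: Read-out is mean GFP fluorescence of Golgi puncta per cell by high-content imaging, retained when furin inhibited, over an eleven-point 0.00017–10 µM series, four-parameter fit.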 The note with it: 24-hour incubation, read-out: furin golgi cell pXC50 (converted).

The target in a further test is furin and PCSK 5/6. The settings on record: serpin protease inhibitor; specificity for furin and PCSK 5/6; from Couture et al. 2015; cited from earlier work.
Where [7] appears, read: 10 mg/kg, Intra-peritoneal, Twice daily.

Results on 9 compounds are retold here after US11773078B2, “Furin inhibitors” (Glaxosmithkline Intellectual Property Development Limited, priority 2018, dated 2023).

Structures can show the parent of a compound that is named as a salt.

T1 sequence (P09958 108-574): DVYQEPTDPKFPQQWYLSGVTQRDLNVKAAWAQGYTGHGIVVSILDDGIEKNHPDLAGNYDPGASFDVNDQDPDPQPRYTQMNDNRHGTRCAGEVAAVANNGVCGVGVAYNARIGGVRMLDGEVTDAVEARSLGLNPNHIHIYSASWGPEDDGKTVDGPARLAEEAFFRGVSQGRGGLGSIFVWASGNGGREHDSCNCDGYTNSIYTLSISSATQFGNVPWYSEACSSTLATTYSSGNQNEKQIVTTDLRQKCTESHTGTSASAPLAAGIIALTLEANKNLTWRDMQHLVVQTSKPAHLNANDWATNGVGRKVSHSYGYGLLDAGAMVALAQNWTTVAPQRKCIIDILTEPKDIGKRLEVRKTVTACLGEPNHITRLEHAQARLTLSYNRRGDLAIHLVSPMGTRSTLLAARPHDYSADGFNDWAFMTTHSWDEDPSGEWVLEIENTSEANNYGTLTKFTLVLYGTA
T2 sequence (P09958 108-794): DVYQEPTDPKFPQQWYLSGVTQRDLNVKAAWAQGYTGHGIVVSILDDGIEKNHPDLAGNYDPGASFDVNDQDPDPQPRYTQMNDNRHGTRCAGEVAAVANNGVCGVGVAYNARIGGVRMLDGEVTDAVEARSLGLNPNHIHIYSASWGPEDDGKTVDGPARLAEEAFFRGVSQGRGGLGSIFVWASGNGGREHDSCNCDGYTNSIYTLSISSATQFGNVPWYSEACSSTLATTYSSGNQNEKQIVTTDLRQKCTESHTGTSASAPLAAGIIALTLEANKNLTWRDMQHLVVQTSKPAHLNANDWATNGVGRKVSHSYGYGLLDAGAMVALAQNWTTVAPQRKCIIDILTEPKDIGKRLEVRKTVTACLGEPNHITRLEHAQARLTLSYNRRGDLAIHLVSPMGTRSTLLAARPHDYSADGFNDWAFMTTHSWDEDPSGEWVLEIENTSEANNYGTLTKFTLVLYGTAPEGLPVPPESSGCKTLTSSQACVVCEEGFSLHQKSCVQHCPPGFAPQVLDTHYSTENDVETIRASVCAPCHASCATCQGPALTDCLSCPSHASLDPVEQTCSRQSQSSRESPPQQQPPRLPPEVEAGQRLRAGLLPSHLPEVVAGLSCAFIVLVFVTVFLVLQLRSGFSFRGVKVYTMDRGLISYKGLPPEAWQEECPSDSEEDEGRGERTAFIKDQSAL

For `CN(C)C(=O)COC(=O)Cc1ccc(OC(=O)c2ccc(NC(=N)N)cc2)cc1` [Camostat mesylate, reference compound], the “inhibitory effect in TEER assay” value in test [1] (compared to Example 11, only mid-μM concentrations partially effective, FIG. 8 and FIG. 9) was “only partially inhibitory and modestly Inhibitory”.

Take `CC(=O)NCC1CCN(Cc2cc(Oc3ccc(N4CCN(CCC(=O)O)CC4)nc3)nc(-c3cc(Cl)cc(Cl)c3)c2)CC1` [Example 11, 3-(4-(5-((4-((4-(Acetamidomethyl)piperidin-1-yl)methyl)-6-(3,5-dichlorophenyl)pyridin-2-yl)oxy)pyridin-2-yl)piperazin-1-yl)propanoic acid, 4 hydrochloride]: the “furin enzyme pIC50” value in test [2] came out at 9.6. In test [3] (acute treatment, up to 3 μM), the “acute effect on RTE” value is “equivalent acute effect to Aprotinin and a stronger effect than Camostat”; the “inhibition of amiloride-sensitive RTE delta (remaining ENaC activity)” value is on record as “inhibited amiloride-sensitive RTE delta modestly”. Further, the “effect on the amiloride-sensitive RTE delta” value in test [3] (chronic overnight treatment, 3 μM, P<0.05) is listed as “equivalent inhibitory effect”. Besides, in test [3] (0.1 μM), the “Delta RTE” value is on record as “+181 ± 16”, the “RTE After Amil” value turned out to be 697 ± 57 and the “RTE Before Amil” value was found to be 517 ± 42. Also, in test [3] (0.3 μM), the “Delta RTE” value was “+122 ± 6”, the “RTE After Amil” value was 548 ± 13 and the “RTE Before Amil” value is recorded as 426 ± 10. Also, in test [3] (1 μM), the “Delta RTE” value is recorded as “+133 ± 14”, the “RTE After Amil” value was 605 ± 49 and the “RTE Before Amil” value was found to be 472 ± 38. Also, in test [3] (3 μM), the “Delta RTE” value is on record as “+63 ± 7”, the “RTE After Amil” value amounted to 390 ± 18 and the “RTE Before Amil” value was 326 ± 16. In test [1] (compared to 'Media only' and 'DMSO (LTA)' controls, FIG. 6, *p<0.05), the “amiloride-induced increase in RTE” value is given as “concentration-dependent reduction in amiloride-induced increase in RTE”. The “effectiveness on RTE compared to industry standards” value in test [1] (compared to Camostat at the same concentration and Aprotinin at ˜10 μM, FIG. 7, overlap in CRCs only at 3 μM) is given as “more effective”. Further, in test [4] (1 and 3 μM), the “attenuation of rate of fluid lost” value is recorded as 50% and the “attenuation of total fluid volume lost” value is reported as 50%. In test [4] (compared to 'DMSO Equivalent' controls, FIG. 10 and FIG. 11), the absorptive fluid transport result is given as “concentration-dependent attenuation of absorptive fluid transport”. For the same compound, the “% inhibition of total TGFβ in lung” value with TGFβ in mouse lung (setting [7]) is given as 69* %. In addition, the “% inhibition of hydroxyproline in lung” value in test [5] (setting [7]) is 67* %. In addition, the EC50 in test [6] was 0.0251 µM.

Regarding `C[C@@H](O)CN1CCN(c2ncc(Oc3cc(CN4CCC(CC(=O)O)CC4)cc(-c4cc(Cl)cc(Cl)c4)n3)cn2)CC1` [Example 298, (R)-2-(1-((2-(3,5-Dichlorophenyl)-6-((2-(4-(2-hydroxypropyl)piperazin-1-yl)pyrimidin-5-yl)oxy)pyridin-4-yl)methyl)piperidin-4-yl)acetic acid], in test [2], the “furin enzyme pIC50” value amounted to 9.2. In addition, the “% inhibition of total TGFβ in lung” value in the test on TGFβ in mouse lung (10 mg/kg, Oral, Once daily) is 23* %. Moreover, the “% inhibition of hydroxyproline in lung” value in test [5] (10 mg/kg, Oral, Once daily) is reported as 16* %. In addition, the EC50 in test [6] was 0.02 µM.

Take `O=C(O)CC1CCN(Cc2cc(Oc3cnc(N4CCN(CCO)CC4)nc3)nc(-c3cc(Cl)cc(Cl)c3)c2)CC1` [Example 306, 2-(1-((2-(3,5-dichlorophenyl)-6-((2-(4-(2-hydroxyethyl)piperazin-1-yl)pyrimidin-5-yl)oxy)pyridin-4-yl)methyl)piperidin-4-yl)acetic acid]: the “furin enzyme pIC50” value in test [2] is given as 8.9. Also, the “% inhibition of total TGFβ in lung” value with TGFβ in mouse lung (10 mg/kg, Oral, Once daily) was 31* %. Also, the “% inhibition of hydroxyproline in lung” value in test [5] (10 mg/kg, Oral, Once daily) is listed as 11%. In test [6], the EC50 was 0.0251 µM.

As for `O=C(O)CC1CCN(Cc2cc(Oc3cnc(N4CCN5CCC4C5)nc3)nc(-c3cc(Cl)cc(Cl)c3)c2)CC1` (centres unmarked) [Example 334, 2-(1-((2-((2-(1,4-Diazabicyclo[3.2.1]octan-4-yl)pyrimidin-5-yl)oxy)-6-(3,5-dichlorophenyl)pyridin-4-yl)methyl)piperidin-4-yl)acetic acid, 4 hydrochloride], the “furin enzyme pIC50” value in test [2] was 8.9. The “% inhibition of total TGFβ in lung” value in the test with TGFβ in mouse lung (30 mg/kg, Oral, Once daily) is 36* %. Also, the “% inhibition of hydroxyproline in lung” value in test [5] (30 mg/kg, Oral, Once daily) is 34* %. For the same compound, in test [6], the EC50 was 0.02 µM.

In the case of `CN1CCN(c2cnc(Oc3cc(CN4CCC(CC(=O)O)CC4)cc(-c4cc(Cl)cc(Cl)c4)n3)cn2)CC1` [Example 339, 2-(1-((2-(3,5-Dichlorophenyl)-6-((5-(4-methylpiperazin-1-yl)pyrazin-2-yl)oxy)pyridin-4-yl)methyl)piperidin-4-yl)acetic acid], in test [2], the “furin enzyme pIC50” value is 8.7. For the same compound, the “% inhibition of total TGFβ in lung” value with TGFβ in mouse lung (10 mg/kg, Oral, Once daily) is listed as 22%. Further, the “% inhibition of hydroxyproline in lung” value in test [5] (10 mg/kg, Oral, Once daily) was determined as 4%. In addition, in test [6], the EC50 was 0.0501 µM.

As to `CN1CCCN(c2cnc(Oc3cc(CN4CCC(CC(=O)O)CC4)cc(-c4cc(Cl)cc(Cl)c4)n3)cn2)CC1` [Example 340, 2-(1-((2-(3,5-dichlorophenyl)-6-((5-(4-methyl-1,4-diazepan-1-yl)pyrazin-2-yl)oxy)pyridin-4-yl)methyl)piperidin-4-yl)acetic acid], the “furin enzyme pIC50” value in test [2] was determined as 8.8. The “% inhibition of total TGFβ in lung” value with TGFβ in mouse lung (30 mg/kg, Oral, Once daily) is given as 26* %. The “% inhibition of hydroxyproline in lung” value in test [5] (30 mg/kg, Oral, Once daily) was 21* %. In test [6], the EC50 is 0.02 µM.

As to `CC(=O)NCC1CCN(Cc2cc(Oc3cnc(N4CCN(CCC(C)C(=O)O)CC4)nc3)nc(-c3cc(Cl)cc(Cl)c3)c2)CC1` (centres unmarked) [Example 369, 4-(4-(5-((4-((4-(Acetamidomethyl)piperidin-1-yl)methyl)-6-(3,5-dichlorophenyl)pyridin-2-yl)oxy)pyrimidin-2-yl)piperazin-1-yl)-2-methylbutanoic acid, 4 hydrochloride], the “furin enzyme pIC50” value in test [2] is reported as 9.3. In addition, the “% inhibition of total TGFβ in lung” value with TGFβ in mouse lung (10 mg/kg, Oral, Once daily) is reported as 75* %. Further, the “% inhibition of hydroxyproline in lung” value in test [5] (10 mg/kg, Oral, Once daily) is 62* %. Besides, in test [6], the EC50 was 0.00501 µM.

Consider “α1-PDX: "an engineered variant of naturally occurring α-1-antitrypsin serum protease inhibitor"; "a serpin superfamily wide protease inhibitor with high specificity for furin and PCSK 5/6"”, for which the Ki (usually the equilibrium dissociation constant of an inhibitor or competing ligand from its target) on furin and PCSK 5/6 is at least 0.0006 µM.
